Data on four compounds can be found in patent US20060275238A1, “Topical cosmetic formulations for regulating and improving the moisture content of the skin” (Goldschmidt GmbH, priority 2005, published 2006).

The structures appear in SMILES notation.

Data set [1] is described as follows: In vitro sorption-desorption properties of moisturizers (weight increase vs relative atmospheric humidity). Type of data set: physicochemical. Particulars: 24 h each; for ability to absorb water as the atmospheric humidity increases: 20% to 80% r.h. in 10% stages; for ability to store/hold the absorbed water as the atmospheric humidity decreases (hysteresis behavior): 80% r.h. reduced in 10% stages. On the procedure: In order to determine the in vitro sorption-desorption properties of moisturizers, these were firstly dried overnight at 80° C. and 0% relative humidity (r.h.) and then cooled to room temperature in a desiccator. 4-5 g of the moisturizer substance were then placed into a Petri dish and stored for 24 h at 20% rh. The weight increase was recorded and the atmospheric humidity was then increased by 10%. After 24 h, the weight of the moisturizer was monitored again. This was repeated in stages to an atmospheric humidity of 80%. The atmospheric humidity was then reduced again every 24 h in 10% stages and the weight decrease was recorded.

Another data set has as its system skin. Description: Corneometry, skin moisture before and after single application of test formulation. It counts as in vivo, subjects. Particulars: single application in O/W cream, contact time two hours; concentration as in 10% active ingredient combination 1. As for the experimental part:
Corneometry is a noninvasive method which permits conclusions relating to the skin moisture on the basis of changes in the physical parameters within the stratum corneum. In practice, 12 to 15 subjects are recruited whose skin moisture is measured before and after single application of the test formulations using a HM99 corneometer (Courage & Khazaka, Cologne, Germany) according to the manufacturer's instructions.
After climatization of the subjects over 15 minutes under defined conditions of 22° C. and 55% relative humidity, the skin hydration is determined corneometrically and afterwards 50 mg of the test formulation are applied to a skin area each with a diameter of 2.5 cm, and after […] any residues of the formulation are removed.
After a contact time of two hours, the skin hydration is measured again following climatization of 15 minutes (22° C., 55% rel. humidity). An increase of the relative corneometer units CU correlates directly with improved skin hydration.
The concentrations of the individual substances were chosen so that they correspond to the concentration in 10% active ingredient combination 1.

Regarding `OCC(O)CO` [glycerol, 1,2,3-propanetriol, reference compound], in data set [1], the “ability to absorb water as the atmospheric humidity increases” value is listed as “absorb the largest possible amounts of water” and the “ability to store/hold the absorbed water as the atmospheric humidity decreases (hysteresis behavior)” value is on record as “not able to do”.

In the case of `CC(O)C(=O)[O-].[K+]` (stereo not drawn) [potassium lactate, Potassium lactate], the “ΔCU, increase in the relative corneometer units compared with the blank formulation” value with skin came to 1.6 CU.

On to `C[N+](C)(C)CC(=O)[O-]` [trimethylglycine, Trimethylglycine], for which, in data set [1], the “ability to absorb water as the atmospheric humidity increases” value is “very good ability to absorb water” and the “ability to store/hold the absorbed water as the atmospheric humidity decreases (hysteresis behavior)” value is on record as “able to hold onto the absorbed water”. Moreover, the “ΔCU, increase in the relative corneometer units compared with the blank formulation” value with skin stood at 3.2 CU.

As for `NC(N)=O` [urea, Urea], in data set [1], the “ability to absorb water as the atmospheric humidity increases” value is recorded as “very good ability to absorb water” and the “ability to store/hold the absorbed water as the atmospheric humidity decreases (hysteresis behavior)” value is recorded as “able to hold onto the absorbed water”. The “ΔCU, increase in the relative corneometer units compared with the blank formulation” value with skin amounted to 3.6 CU.
